Assay results reported in patent publication US20240398868A1 (GEL4MED, INC., priority 2020, published 2024).

Experiment: Net charge and isoelectric point of peptide
Format: physicochemical
Conditions: pH 7
Source text: The peptide may be purified. For example, the peptide may be lyophilized. […] Other peptides are within the scope of the disclosure.
Exemplary peptides having a charge of +5 to +9 include […](d)[…], […](d)[…], and […](d)[…]. In other embodiments, the purified peptide may be substantially neutral. […] Net charge may be selected by peptide design. Design of electrostatic charge in the peptide hydrogel may allow control of charge interaction with cell membrane and proteins.

Substance: VEVSVSVEV(d)PPTEVSVEVEV
- net charge: net negative charge
